Results from ChEMBL document CHEMBL4385598, “A comprehensive review of topoisomerase inhibitors as anticancer agents in the past decade” (Eur J Med Chem, 2019).

What was measured:
[1] = target: T1, DNA topoisomerase I (Bos taurus) (UniProt F1MN93); assay: Inhibition of calf thymus DNA topoisomerase 1 using supercoiled pBR322 plasmid DNA as substrate at 20 uM after 30 mins by agarose gel electrophoresis method relative to control
T1 sequence (whole entry): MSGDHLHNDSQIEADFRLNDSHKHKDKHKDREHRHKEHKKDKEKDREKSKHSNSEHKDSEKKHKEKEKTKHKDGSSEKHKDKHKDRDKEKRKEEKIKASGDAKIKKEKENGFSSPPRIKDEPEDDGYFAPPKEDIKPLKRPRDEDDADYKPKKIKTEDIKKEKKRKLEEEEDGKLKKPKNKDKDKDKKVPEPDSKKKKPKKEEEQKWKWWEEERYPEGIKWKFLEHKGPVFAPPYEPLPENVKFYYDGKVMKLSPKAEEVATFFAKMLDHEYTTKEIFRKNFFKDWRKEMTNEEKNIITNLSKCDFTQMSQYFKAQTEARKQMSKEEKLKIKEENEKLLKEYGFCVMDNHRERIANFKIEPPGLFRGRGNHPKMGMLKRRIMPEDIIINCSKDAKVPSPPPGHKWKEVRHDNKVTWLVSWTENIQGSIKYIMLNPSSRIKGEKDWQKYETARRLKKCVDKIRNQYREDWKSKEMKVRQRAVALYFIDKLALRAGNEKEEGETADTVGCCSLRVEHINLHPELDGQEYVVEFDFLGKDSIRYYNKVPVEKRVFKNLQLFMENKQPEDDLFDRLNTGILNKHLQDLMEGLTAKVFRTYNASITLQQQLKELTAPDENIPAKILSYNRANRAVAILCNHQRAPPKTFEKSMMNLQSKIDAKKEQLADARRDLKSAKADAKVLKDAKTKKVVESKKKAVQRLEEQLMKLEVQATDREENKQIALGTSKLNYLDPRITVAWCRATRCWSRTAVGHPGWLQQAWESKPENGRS

[2] = test system: Ca-Ski; assay: Cytotoxicity against human CaSki cells assessed as reduction in cell growth incubated for 48 hrs by SRB assay; format: functional, cell-based
[3] = test system: HeLa; assay: Cytotoxicity against human HeLa cells assessed as reduction in cell growth incubated for 48 hrs by SRB assay; format: functional, cell-based
[4] = test system: T47D; assay: Cytotoxicity against human T47D cells assessed as reduction in cell growth preincubated for 4 hrs in FBS starvation condition followed by incubation for 2 days by CCK8-based cell counting method; format: functional
[5] = test system: L1210; assay: Antitumor activity against mouse L1210 cells assessed as reduction in cell viability by MTT assay; format: functional, cell-based
[6] = test system: HL-60; assay: Antitumor activity against human HL60 cells assessed as reduction in cell viability by MTT assay; format: functional, cell-based
[7] = target: DNA topoisomerase 2-alpha (Homo sapiens) (UniProt P11388); assay: Inhibition of human DNA topoisomerase 2 using supercoiled pBR322 plasmid DNA as substrate at 20 uM after 30 mins by agarose gel electrophoresis method relative to control
Chain of DNA topoisomerase 2-alpha (Homo sapiens) (P11388 whole entry): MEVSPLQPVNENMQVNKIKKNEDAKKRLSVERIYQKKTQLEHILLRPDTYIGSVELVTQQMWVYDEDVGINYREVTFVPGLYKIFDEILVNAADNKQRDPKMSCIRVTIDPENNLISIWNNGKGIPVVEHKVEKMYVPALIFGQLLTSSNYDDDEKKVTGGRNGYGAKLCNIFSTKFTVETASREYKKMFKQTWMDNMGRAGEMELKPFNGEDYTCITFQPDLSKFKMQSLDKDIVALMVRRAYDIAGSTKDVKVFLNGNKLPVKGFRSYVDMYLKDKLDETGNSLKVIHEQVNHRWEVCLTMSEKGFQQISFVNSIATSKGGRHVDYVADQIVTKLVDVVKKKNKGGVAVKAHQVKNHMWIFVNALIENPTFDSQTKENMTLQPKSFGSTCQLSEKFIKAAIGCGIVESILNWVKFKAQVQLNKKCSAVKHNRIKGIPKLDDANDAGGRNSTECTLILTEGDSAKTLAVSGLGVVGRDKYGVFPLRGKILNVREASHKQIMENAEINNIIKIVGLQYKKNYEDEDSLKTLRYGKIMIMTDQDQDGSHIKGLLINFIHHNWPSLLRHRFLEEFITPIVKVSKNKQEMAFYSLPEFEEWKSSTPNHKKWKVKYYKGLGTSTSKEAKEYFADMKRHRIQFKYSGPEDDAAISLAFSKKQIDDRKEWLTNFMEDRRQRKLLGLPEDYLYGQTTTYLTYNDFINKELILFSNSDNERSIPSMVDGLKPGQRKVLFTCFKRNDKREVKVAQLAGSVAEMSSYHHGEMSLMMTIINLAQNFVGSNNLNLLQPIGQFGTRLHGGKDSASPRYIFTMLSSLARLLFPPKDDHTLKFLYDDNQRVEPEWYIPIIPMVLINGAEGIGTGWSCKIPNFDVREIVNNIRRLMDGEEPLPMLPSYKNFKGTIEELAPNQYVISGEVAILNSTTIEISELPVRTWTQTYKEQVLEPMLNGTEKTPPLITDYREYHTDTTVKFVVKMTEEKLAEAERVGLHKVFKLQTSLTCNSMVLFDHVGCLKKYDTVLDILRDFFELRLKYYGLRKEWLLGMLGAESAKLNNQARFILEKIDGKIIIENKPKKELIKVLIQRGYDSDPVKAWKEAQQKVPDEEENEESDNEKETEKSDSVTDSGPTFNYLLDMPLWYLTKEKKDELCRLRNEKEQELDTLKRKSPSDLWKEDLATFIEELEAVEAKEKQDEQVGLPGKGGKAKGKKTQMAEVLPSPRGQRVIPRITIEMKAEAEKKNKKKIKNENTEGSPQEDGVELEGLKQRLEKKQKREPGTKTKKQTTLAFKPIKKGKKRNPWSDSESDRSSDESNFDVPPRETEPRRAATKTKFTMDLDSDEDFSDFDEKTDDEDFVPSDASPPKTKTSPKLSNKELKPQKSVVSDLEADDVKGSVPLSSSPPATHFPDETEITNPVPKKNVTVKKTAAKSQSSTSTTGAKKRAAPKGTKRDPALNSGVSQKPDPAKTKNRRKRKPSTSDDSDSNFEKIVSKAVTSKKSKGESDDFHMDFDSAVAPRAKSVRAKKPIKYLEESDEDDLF

Row | Compound | IC50 [2] [µg/mL] | IC50 [3] [µg/mL] | IC50 [4] [µM] | IC50 [5] [µM] | IC50 [6] [µM] | other results
1 | CC[C@@]1(O)C(=O)OCc2c1cc1n(c2=O)Cc2cc3ccccc3nc2-1 | – | – | – | – | – | inhibition [1]: 51%
2 | COc1cc(CN2CCN(c3ccc(F)cc3)CC2)c2cc3[n+](cc2c1OC)CCc1cc2c(cc1-3)OCO2.[Cl-] | < 6 | < 6 | – | – | – | –
3 | Oc1ccc(-c2cc(-c3ccccc3Cl)cc(-c3ccco3)n2)cc1 | – | – | 0.68 to 1.25 | – | – | –
4 | O=C(N/N=C/c1ccccc1[N+](=O)[O-])c1cn(C2CC2)c2cc(N/N=C/c3ccccc3[N+](=O)[O-])c(F)cc2c1=O | – | – | – | ≤ 25 | ≤ 25 | –
5 | COc1ccc(/C=N/NC(=O)c2cn(C3CC3)c3cc(N4CCNCC4)c(F)cc3c2=O)cc1O | – | – | – | ≤ 25 | ≤ 25 | –
6 | O=C(N/N=C/c1ccc2c(c1)OCO2)c1cn(C2CC2)c2cc(N/N=C/c3ccc4c(c3)OCO4)c(F)cc2c1=O | – | – | – | ≤ 25 | ≤ 25 | –
7 | COc1cc(CN2CCN(c3ccccc3F)CC2)c2cc3[n+](cc2c1OC)CCc1cc2c(cc1-3)OCO2.[Cl-] | < 6 | < 6 | – | – | – | –
8 | Oc1cccc(-c2cc(-c3cccc(Cl)c3)cc(-c3cccs3)n2)c1 | – | – | 0.68 to 1.25 | – | – | –
9 | Oc1cccc(-c2cc(-c3ccc(Cl)cc3)cc(-c3ccccc3)n2)c1 | – | – | 0.68 to 1.25 | – | – | –
10 | CCCCC[C@H](O)[C@@H](O)/C=C/[C@@H](O)CCCCCCCC(=O)O | – | – | – | – | – | inhibition [1]: 41%; inhibition [7]: 97%
11 | COc1cc(CN2CCN(c3ccc(OC(F)(F)F)cc3)CC2)c2cc3[n+](cc2c1OC)CCc1cc2c(cc1-3)OCO2.[Cl-] | < 6 | < 6 | – | – | – | –
12 | Oc1cccc(-c2cc(-c3cccc(Cl)c3)cc(-c3ccccc3)n2)c1 | – | – | 0.68 to 1.25 | – | – | –
13 | COc1cc(/C=N/NC(=O)c2cn(C3CC3)c3cc(N/N=C/c4cc(OC)c(OC)c(OC)c4)c(F)cc3c2=O)cc(OC)c1OC | – | – | – | ≤ 25 | ≤ 25 | –
14 | Oc1cccc(-c2cc(-c3ccc(Cl)cc3)cc(-c3ccsc3)n2)c1 | – | – | 0.68 to 1.25 | – | – | –
15 | COc1ccc(/C=N/NC(=O)c2cn(C3CC3)c3cc(N/N=C/c4ccc(OC)c(O)c4)c(F)cc3c2=O)cc1O | – | – | – | ≤ 25 | ≤ 25 | –
16 | O=C(N/N=C/c1ccc(F)cc1)c1cn(C2CC2)c2cc(N3CCNCC3)c(F)cc2c1=O | – | – | – | ≤ 25 | ≤ 25 | –
17 | Oc1cccc(-c2cc(-c3ccccc3Cl)cc(-c3ccccc3)n2)c1 | – | – | 0.68 to 1.25 | – | – | –
18 | COc1cc(CN2CCN(c3ccc(C(F)(F)F)cc3)CC2)c2cc3[n+](cc2c1OC)CCc1cc2c(cc1-3)OCO2.[Cl-] | < 6 | < 6 | – | – | – | –
19 | COc1cc(CN2CCN(c3ccccc3[N+](=O)[O-])CC2)c2cc3[n+](cc2c1OC)CCc1cc2c(cc1-3)OCO2.[Cl-] | < 6 | < 6 | – | – | – | –
20 | COc1cc(CN2CCN(c3ccc(Cl)cc3)CC2)c2cc3[n+](cc2c1OC)CCc1cc2c(cc1-3)OCO2.[Cl-] | < 6 | < 6 | – | – | – | –
